This passage reports melting point and mortality results from patent US9137998B2, “Pesticidal compositions and related methods” (DOW AGROSCIENCES LLC, priority 2013, dated 2015).

Data set [1] concerns Sweetpotato Whitefly-Crawler (Bemisia tabaci) (WF) (BEMITA). Put plainly: Insecticidal test for Sweetpotato Whitefly-crawler (WF) in foliar spray assay on cotton plants. The data set is classed as in vivo. The conditions noted are these: Bemisia tabaci, 216 h, 200 ppm foliar spray, graded after 9 days, Abbott corrected % control, read-out: % Control (or Mortality) rating, WF. The method, then:
Cotton plants (Gossypium hirsutum) grown in 3-inch pots, with 1 small (4-5 cm) true leaves, were used as test substrate. The plants were infested with 200-400 whitefly eggs 4-5 days prior to chemical application. Four pots with individual plants were used for each treatment. Test compounds (2 mg) were dissolved in 1 mL of acetone solvent, forming stock solutions of 2000 ppm test compound. The stock solutions were diluted 10× with 0.025% Tween 20 in H2O (diluents) to obtain the solution at 200 ppm test compound. A hand-held aspirator-type sprayer was used for spraying a solution to both sides of cotton leaves until runoff. Reference plants (solvent check) were sprayed with the diluent only containing 10% by volume of acetone solvent. Treated plants were held in a holding room for 9 days at approximately 25° C. and ambient relative humidity (RH) prior to grading. Evaluation was conducted by counting the number of live 3-4 nymph stage per plant under a microscope. Percent control was measured by using Abbott's correction formula (W. S. Abbott, “A Method of Computing the Effectiveness of an Insecticide” J. Econ. Entomol. 18 (1925), pp. 265-26′7) as follows. Corrected % Control=100*(X−Y)/X
X=No. of live nymphs on solvent check plants and
Y=No. of live nymphs on treated plants. […]

Data set [2] has as its system Green Peach Aphid (Myzus persicae) (GPA) (MYZUPE). Put plainly: Bioassay for Green Peach Aphid (GPA), foliar spray on cabbage seedlings. It counts as in vivo. The conditions noted are these: Myzus persicae, 72 h, 200 ppm foliar spray, graded after three days, Abbott corrected % control, read-out: % Control (or Mortality) rating, GPA. The method, then:
Cabbage seedlings grown in 3-inch pots, with 2-3 small (3-5 cm) true leaves, were used as test substrate. The seedlings were infested with 20-50 GPA (wingless adult and nymph stages) one day prior to chemical application. Four pots with individual seedlings were used for each treatment. Test compounds (2 mg) were dissolved in 2 mL of acetone/methanol (1:1) solvent, forming stock solutions of 1000 ppm test compound. The stock solutions were diluted 5× with 0.025% Tween 20 in H2O to obtain the solution at 200 ppm test compound. A hand-held aspirator-type sprayer was used for spraying a solution to both sides of […] leaves until runoff. Reference plants (solvent check) were sprayed with the diluent only containing 20% by volume of acetone/methanol (1:1) solvent. Treated plants were held in a holding room for three days at approximately 25° C. and ambient relative humidity (RH) prior to grading. Evaluation was conducted by counting the number of live aphids per plant under a microscope. Percent control was measured by using Abbott's correction formula (W. S. Abbott, “A Method of Computing the Effectiveness of an Insecticide” J. Econ. Entomol. 18 (1925), pp. 265-267) as follows. Corrected % Control=100*(X−Y)/X
X=No. of live aphids on solvent check plants and
Y=No. of live aphids on treated plants
Biological Data for Green Peach Aphid (GPA) (MYZUPE) and Sweetpotato Whitefly-crawler (WF) (BEMITA)” (See Table Section).

With `C#CCN(C(=O)OC(C)(C)C)c1sc(Br)nc1C` [CA4, tert-Butyl (2-bromo-4-methylthiazol-5-yl)(prop-2-yn-1-yl)carbamate], the melting point fell in the range of 82 to 86 °C.
Take `C#CCN(C(=O)CC[S+]([O-])CCC(F)(F)F)c1sc(-c2cccnc2)nc1C` (centres unmarked) [Compound P7, N-(4-Methyl-2-(pyridin-3-yl)thiazol-5-yl)-N-(prop-2-yn-1-yl)-3-((3,3,3-trifluoropropyl)sulfinyl) propanamide]: the mortality at 200 ppm in data set [1] and in data set [2] was 80 to 100% throughout.
In the case of `C#CCN(C(=O)CCS(=O)(=O)CCC(F)(F)F)c1sc(-c2cccnc2)nc1C` [Compound P8, N-(4-Methyl-2-(pyridin-3-yl)thiazol-5-yl)-N-(prop-2-yn-1-yl)-3-((3,3,3-trifluoropropyl)sulfonyl) propanamide], the mortality at 200 ppm in data set [1] and in data set [2] was 80 to 100% each time.
With `C#CCN(C(=O)CCSCC1CC1(F)F)c1sc(-c2cccnc2)nc1C` (centres unmarked) [Compound P10, 3-(((2,2-Difluorocyclopropyl)methyl)thio)-N-(4-methyl-2-(pyridin-3-yl)thiazol-5-yl)-N-(prop-2-yn-1-yl)propanamide], the mortality at 200 ppm in data set [1] and in data set [2] was 80 to 100% throughout.
Turning to `CC#CCN(C(=O)CCSCCC(F)(F)F)c1sc(-c2cccnc2)nc1C` [Compound P16, N-(But-2-yn-1-yl)-N-(4-methyl-2-(pyridin-3-yl)thiazol-5-yl)-3-((3,3,3-trifluoropropyl)thio) propanamide], the mortality at 200 ppm in data set [1] and in data set [2] was 80 to 100% in each case.
On to `CC#CCN(C(=O)CCSC)c1sc(-c2cccnc2)nc1C` [Compound P17, N-(But-2-yn-1-yl)-N-(4-methyl-2-(pyridin-3-yl)thiazol-5-yl)-3-(methylthio)propanamide], for which the mortality at 200 ppm in data set [1] and in data set [2] was 80 to 100% each time.
As for `C#CCN(C(=O)CCSCCC(F)(F)F)c1sc(-c2cncc(F)c2)nc1C` [Compound P19, N-(2-(5-Fluoropyridin-3-yl)-4-methylthiazol-5-yl)-N-(prop-2-yn-1-yl)-3-((3,3,3-trifluoropropyl)thio)propanamide], the mortality at 200 ppm in data set [1] and in data set [2] was 80 to 100% throughout.
`C#CCN(C(=O)CCSCC1CC1(F)F)c1sc(-c2cncc(F)c2)nc1C` (centres unmarked) [Compound P22, 3-(((2,2-Difluorocyclopropyl)methyl)thio)-N-(2-(5-fluoropyridin-3-yl)-4-methylthiazol-5-yl)-N-(prop-2-yn-1-yl)propanamide]: the mortality at 200 ppm in data set [1] and in data set [2] was 80 to 100% in each case.
Turning to `C#CC(C)N(C(=O)CCSCC1CC1(F)F)c1sc(-c2cccnc2)nc1C` (centres unmarked) [Compound P31, N-(But-3-yn-2-yl)-3-(((2,2-difluorocyclopropyl)methyl)thio)-N-(4-methyl-2-(pyridin-3-yl)thiazol-5-yl)propanamide], the mortality at 200 ppm in data set [1] and in data set [2] was 80 to 100% each time.
As for `C#CC(C)N(C(=O)CCSCCC(F)(F)F)c1sc(-c2cccnc2)nc1C` (centres unmarked) [Compound P32, N-(But-3-yn-2-yl)-N-(4-methyl-2-(pyridin-3-yl)thiazol-5-yl)-3-((3,3,3-trifluoropropyl)thio) propanamide], the mortality at 200 ppm in data set [1] and in data set [2] was 80 to 100% throughout.
Take `C#CCN(C(=O)CCSCCC(F)(F)F)c1sc(-c2cccnc2)nc1Cl` [FA1, N-(4-Chloro-2-(pyridin-3-yl)thiazol-5-yl)-N-(prop-2-yn-1-yl)-3-((3,3,3-trifluoropropyl)thio) propanamide]: the mortality at 200 ppm in data set [1] and in data set [2] was 80 to 100% each time.
As for `C#CCN(C(=O)CCSCCC(F)(F)F)c1sc(-c2cncc(F)c2)nc1Cl` [FA2, N-(4-Chloro-2-(5-fluoropyridin-3-yl)thiazol-5-yl)-N-(prop-2-yn-1-yl)-3-((3,3,3-trifluoropropyl)thio)propanamide], the mortality at 200 ppm in data set [1] and in data set [2] was 80 to 100% in each case.
As for `C#CCN(C(=O)CCSCCC(F)(F)F)c1sc(-c2cncnc2)nc1Cl` [FA3, N-(4-chloro-2-(pyrimidin-5-yl)thiazol-5-yl)-N-(prop-2-yn-1-yl)-3-((3,3,3-trifluoropropyl)thio)propanamide], the mortality at 200 ppm in data set [1] and in data set [2] was 80 to 100% in each case.
For the compound `C#CCN(C(=O)CCSC)c1sc(-c2cncc(F)c2)nc1C` [FA4, N-(2-(5-Fluoropyridin-3-yl)-4-methylthiazol-5-yl)-3-(methylthio)-N-(prop-2-yn-1-yl)propanamide], the mortality at 200 ppm in data set [1] and in data set [2] was 80 to 100% throughout.
`C#CCN(C(=O)C(C)CSC)c1sc(-c2cncc(F)c2)nc1C` (centres unmarked) [FA5, N-(2-(5-Fluoropyridin-3-yl)-4-methylthiazol-5-yl)-2-methyl-3-(methylthio)-N-(prop-2-yn-1-yl) propanamide]: the mortality at 200 ppm in data set [1] and in data set [2] was 80 to 100% each time.
Turning to `C#CCN(C(=O)CC[S+]([O-])CCC(F)(F)F)c1sc(-c2cccnc2)nc1Cl` (centres unmarked) [FA6, N-(4-chloro-2-(pyridin-3-yl)thiazol-5-yl)-N-(prop-2-yn-1-yl)-3-((3,3,3trifluoropropyl)sulfinyl)propanamide], the mortality at 200 ppm in data set [1] and in data set [2] was 80 to 100% throughout.
As to `C#CCN(C(=O)CC[S+]([O-])CCC(F)(F)F)c1sc(-c2cncc(F)c2)nc1Cl` (centres unmarked) [FA7, N-(4-Chloro-2-(5-fluoropyridin-3-yl)thiazol-5-yl)-N-(prop-2-yn-1-yl)-3-((3,3,3-trifluoropropyl)sulfinyl)propanamide], the mortality at 200 ppm in data set [1] and in data set [2] was 80 to 100% each time.
Take `C#CCN(C(=O)CC[S+]([O-])CCC(F)(F)F)c1sc(-c2cncnc2)nc1Cl` (centres unmarked) [FA8, N-(4-Chloro-2-(pyrimidin-5-yl)thiazol-5-yl)-N-(prop-2-yn-1-yl)-3-((3,3,3-trifluoropropyl)sulfinyl)propanamide]: the mortality at 200 ppm in data set [1] and in data set [2] was 80 to 100% in each case.
For the compound `C#CCN(C(=O)CC[S+]([O-])CC1CC1(F)F)c1sc(-c2cccnc2)nc1C` (centres unmarked) [FA9, 3-(((2,2-Difluorocyclopropyl)methyl)sulfinyl)-N-(4-methyl-2-(pyridin-3-yl)thiazol-5-yl)-N-(prop-2-yn-1-yl)propanamide], the mortality at 200 ppm in data set [1] and in data set [2] was 80 to 100% in each case.
With `C#CCN(C(=O)CCS(=O)(=O)CCC(F)(F)F)c1sc(-c2cccnc2)nc1Cl` [FA10, N-(4-chloro-2-(pyridin-3-yl)thiazol-5-yl)-N-(prop-2-yn-1-yl)-3-((3,3,3-trifluoropropyl)sulfonyl)propanamide], the mortality at 200 ppm in data set [1] and in data set [2] was 80 to 100% in each case.
For the compound `C#CCN(C(=O)CCS(=O)(=O)CCC(F)(F)F)c1sc(-c2cncc(F)c2)nc1Cl` [FA11, N-(4-Chloro-2-(5-fluoropyridin-3-yl)thiazol-5-yl)-N-(prop-2-yn-1-yl)-3-((3,3,3-trifluoropropyl)sulfonyl)propanamide], the mortality at 200 ppm in data set [1] and in data set [2] was 80 to 100% each time.
Consider `C#CCN(C(=O)CCS(=O)(=O)CCC(F)(F)F)c1sc(-c2cncnc2)nc1Cl` [FA12, N-(4-Chloro-2-(pyrimidin-5-yl)thiazol-5-yl)-N-(prop-2-yn-1-yl)-3-((3,3,3-trifluoropropyl)sulfonyl) propanamide], for which the mortality at 200 ppm in data set [1] and in data set [2] was 80 to 100% each time.
Regarding `C#CCN(C(=O)CCS(=O)(=O)CC1CC1(F)F)c1sc(-c2cccnc2)nc1C` (centres unmarked) [FA13, 3-(((2,2-Difluorocyclopropyl)methyl)sulfonyl)-N-(4-methyl-2-(pyridin-3-yl)thiazol-5-yl)-N-(prop-2-yn-1-yl)propanamide], the mortality at 200 ppm in data set [1] and in data set [2] was 80 to 100% in each case.
Consider `CC#CCN(C(=O)CCSCC1CC1(F)F)c1sc(-c2cccnc2)nc1C` (centres unmarked) [FA14, N-(But-2-yn-1-yl)-3-(((2,2-difluorocyclopropyl)methyl)thio)-N-(4-methyl-2-(pyridin-3-yl)thiazol-5-yl)propanamide], for which the mortality at 200 ppm in data set [1] and in data set [2] was 80 to 100% in each case.

A word on the melting point: it is the temperature of the solid-liquid transition. For orientation: mortality means the percentage killed.
